# In patent publication US10281267B2, “Method for evaluating flow of skin, method for examining skin glow improvers, and skin glow improver” (Shiseido Company, Ltd., priority 2014, dated 2019):
# Entries after “also recorded” stand apart in the source; their conditions may differ.
# How the values were obtained:
# horny layer cells [1] = assay: Screening of specular reflectance improvers: arithmetic average roughness (Sa) of exfoliated horny layer cells by AFM; format: cell-based; conditions: for screening result: specular reflectance improver: 100 μl sample on horny layer cells, 30 minutes at 37° C., nine types of cosmetic ingredients screened
# Description: The surface roughness of skin can be determined by measuring the surface of horny layer cells sampled with a strip of adhesive tape and the like using a microscope such as an atomic force microscope. Surface roughness can be calculated in terms of arithmetic average roughness (Sa) as defined in ISO25178 by acquiring 3D-scanned images captured using an atomic force microscope, correcting the inclination of the 3D shape by subtracting those images applicable to a Gaussian filter having a half width of 2 μm, displaying the images, and calculating the average of absolute values of the Z axis for each XY coordinate.
# First, the arithmetic average roughness (Sa) of horny layer cells is measured (S11). Next, a sample is applied to the horny layer cells (S12). Then, the arithmetic average roughness (Sa) of the horny layer cells to which the sample has been applied is measured (S13). Next, the rate of decrease of the arithmetic average roughness (Sa) of the horny layer cells to which the sample was applied is determined relative to the arithmetic average roughness of the horny layer cells to which the sample was not applied (S14).
# On the other hand, horny layer cells were exfoliated from the cheeks of the subjects using adhesive strips (Post-It®, 3M Corp.). Next, double-sided adhesive tape was adhered to a slide glass and the exfoliated horny layer cells were transferred to the slide glass. Moreover, the arithmetic average roughness (Sa) of five horny layer cells was measured using an AFM attached to the Optelics H1200A 3CCD real color confocal microscope (Lasertec Corp.) followed by determination of the average value thereof.
# Horny layer cells were exfoliated from the cheeks of subjects using adhesive strips (Post-It®, 3M Corp.). Next, double-sided adhesive tape was adhered to a slide glass and the exfoliated horny layer cells were transferred to the slide glass. Moreover, the arithmetic average roughness (Sa) of five horny layer cells was measured using an AFM attached to the Optelics H1200A 3CCD real color confocal microscope (Lasertec Corp.) followed by determination of the average value thereof. Next, 100 μl of a candidate sample were dropped onto the horny layer cells followed by incubating for 30 minutes at 37° C. Moreover, arithmetic average roughness (Sa) of the aforementioned five horny layer cells was then measured in the same manner followed by determination of the average value thereof.
# horny layer cells [2] = assay: as above; format: cell-based; conditions: trimethylglycine alone
smiles,measurement,setting,value
O=C(O)CO [glycolic acid],screening result: specular reflectance improver,horny layer cells [1],determined to be specular reflectance improvers
same,arithmetic average roughness (Sa) of horny layer cells,"horny layer cells [1]; concentration 4% by weight to 40% by weight, FIG. 20",decreases significantly
"O=C([O-])c1ccccc1O.[Na+] [sodium salicylate, sodium 2-hydroxybenzoate]",screening result: specular reflectance improver,horny layer cells [1],determined to be specular reflectance improvers
COc1ccc(C(=O)[O-])c(O)c1.[K+] [potassium 4-methoxysalicylate],rate of decrease of arithmetic average roughness (Sa) of horny layer cells,"horny layer cells [1]; 4-MSK at 0, 0.1, 1.0, 3.0 and 10.0% by weight, FIG. 8",dose-dependent increase in the rate of decrease of arithmetic average roughness (Sa) up to 3.0% by weight
same,screening result: specular reflectance improver,horny layer cells [1],determined to be specular reflectance improvers
same,arithmetic average roughness (Sa) of horny layer cells,"horny layer cells [1]; concentration 3% by weight to 10% by weight, FIG. 13",decreases significantly
C[N+](C)(C)CC(=O)[O-] [trimethylglycine],rate of decrease of arithmetic average roughness (Sa) of horny layer cells,"horny layer cells [1]; TMG alone at 0, 5 and 10% by weight, FIG. 9",does not have the effect of smoothing the horny layer or improving skin glow; also recorded: no differences in the rates of decrease of arithmetic average roughness (Sa); also recorded: did not have an effect on the rate of decrease of Sa
same,specular reflectance of the skin,horny layer cells [2],confirmed to not be improved
